Data on 25 compounds can be found in ChEMBL document CHEMBL1142520, “Potent, selective and orally bioavailable dihydropyrimidine inhibitors of Rho kinase (ROCK1) as potential therapeutic agents for cardiovascular diseases” (J Med Chem, 2008).

pIC50: −log10 of the molar value.

For data set [1], the system named is Rattus norvegicus. Kind of data set: Decrease in mean arterial pressure in conscious spontaneous hypertensive rat model at 30 mg/kg, po.
For a further data set, the system named is Aorta. Kind of data set: Inhibition of phenylephrine-induced aortic ring contraction in Sprague-Dawley rat. It counts as functional, tissue-based.
The target of data set [2] is Ribosomal protein S6 kinase beta-1 (Homo sapiens, UniProt P23443). Kind of data set: Inhibition of p70S6K.
Sequence of Ribosomal protein S6 kinase beta-1 (P23443 whole entry): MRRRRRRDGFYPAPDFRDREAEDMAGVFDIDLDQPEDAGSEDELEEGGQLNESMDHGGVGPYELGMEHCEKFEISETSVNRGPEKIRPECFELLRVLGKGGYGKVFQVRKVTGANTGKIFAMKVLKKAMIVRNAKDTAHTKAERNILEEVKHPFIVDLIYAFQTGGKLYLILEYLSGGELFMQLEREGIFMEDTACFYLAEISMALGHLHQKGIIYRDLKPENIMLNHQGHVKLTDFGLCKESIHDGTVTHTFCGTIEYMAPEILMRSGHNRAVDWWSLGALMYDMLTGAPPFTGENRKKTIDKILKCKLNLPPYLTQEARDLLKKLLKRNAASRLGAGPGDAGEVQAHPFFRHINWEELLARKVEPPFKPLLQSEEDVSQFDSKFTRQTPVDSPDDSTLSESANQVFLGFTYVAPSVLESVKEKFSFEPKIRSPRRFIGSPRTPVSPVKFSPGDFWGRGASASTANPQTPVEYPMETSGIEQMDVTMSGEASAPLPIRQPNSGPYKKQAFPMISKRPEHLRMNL
For data set [3], the system named is Rattus norvegicus. Kind of data set: (§1) Volume of distribution at steady state in Sprague-Dawley rat at 1.1 mg/kg, iv. As to conditions: in vivo. In kind it is ADME, organism-based. The arrangement: dose 1.1 mg/kg, route intravenous.
A short description of data set [4]: Half life in monkey. It counts as ADME, organism-based, Macaca mulatta. As to conditions: rhesus monkey, in vivo.
Another data set deals with Cytochrome P450 2C9 (Homo sapiens, UniProt P11712). Kind of data set: Inhibition of CYP2C9. It counts as ADME.
Sequence of Cytochrome P450 2C9 (P11712 whole entry): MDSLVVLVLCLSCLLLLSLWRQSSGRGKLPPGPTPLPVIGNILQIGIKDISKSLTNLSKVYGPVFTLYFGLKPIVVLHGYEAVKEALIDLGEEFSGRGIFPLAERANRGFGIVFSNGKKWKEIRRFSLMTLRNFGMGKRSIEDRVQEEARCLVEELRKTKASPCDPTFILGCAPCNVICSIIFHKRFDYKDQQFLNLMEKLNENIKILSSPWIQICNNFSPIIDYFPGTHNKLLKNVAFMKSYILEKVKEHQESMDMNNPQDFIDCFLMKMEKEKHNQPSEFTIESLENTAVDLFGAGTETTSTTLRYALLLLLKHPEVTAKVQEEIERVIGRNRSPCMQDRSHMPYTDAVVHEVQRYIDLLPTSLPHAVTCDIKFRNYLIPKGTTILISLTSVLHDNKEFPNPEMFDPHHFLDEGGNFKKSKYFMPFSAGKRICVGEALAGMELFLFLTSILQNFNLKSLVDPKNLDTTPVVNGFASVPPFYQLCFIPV
Data set [5] can be described thus: Oral bioavailability in monkey. Particulars: rhesus monkey, in vivo. It counts as ADME, organism-based, Macaca mulatta.
In data set [6] the test system is Rattus norvegicus. As to the kind of experiment: (§2) Half life in Sprague-Dawley rat at 1.1 mg/kg, iv. In kind it is ADME, organism-based. Set-up: dose 1.1 mg/kg, route intravenous. As to conditions: in vivo.
The target of a further data set is Cytochrome P450 2D6 (Homo sapiens, UniProt P10635). Kind of data set: Inhibition of CYP2D6. In kind it is ADME.
Sequence of Cytochrome P450 2D6 (P10635 whole entry): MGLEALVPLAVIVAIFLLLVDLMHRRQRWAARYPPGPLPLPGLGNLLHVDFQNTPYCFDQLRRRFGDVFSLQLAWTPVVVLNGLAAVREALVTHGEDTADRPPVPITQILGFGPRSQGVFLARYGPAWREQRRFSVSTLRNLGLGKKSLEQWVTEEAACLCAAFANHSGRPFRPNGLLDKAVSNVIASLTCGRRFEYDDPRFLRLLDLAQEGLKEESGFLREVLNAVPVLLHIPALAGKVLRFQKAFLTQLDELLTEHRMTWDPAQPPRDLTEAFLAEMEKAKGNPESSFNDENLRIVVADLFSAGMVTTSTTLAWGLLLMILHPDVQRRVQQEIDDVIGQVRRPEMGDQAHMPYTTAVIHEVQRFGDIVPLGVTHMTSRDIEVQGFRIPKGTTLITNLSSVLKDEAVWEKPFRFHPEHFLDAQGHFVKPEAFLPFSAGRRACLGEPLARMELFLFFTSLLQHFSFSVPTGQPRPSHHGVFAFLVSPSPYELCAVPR
The target in data set [7] is Rho-associated protein kinase 1 (Homo sapiens, UniProt Q13464). Kind of data set: Inhibition of human recombinant ROCK1 kinase expressed in insect Sf9 cells by SPA.
Sequence of Rho-associated protein kinase 1 (Q13464 whole entry): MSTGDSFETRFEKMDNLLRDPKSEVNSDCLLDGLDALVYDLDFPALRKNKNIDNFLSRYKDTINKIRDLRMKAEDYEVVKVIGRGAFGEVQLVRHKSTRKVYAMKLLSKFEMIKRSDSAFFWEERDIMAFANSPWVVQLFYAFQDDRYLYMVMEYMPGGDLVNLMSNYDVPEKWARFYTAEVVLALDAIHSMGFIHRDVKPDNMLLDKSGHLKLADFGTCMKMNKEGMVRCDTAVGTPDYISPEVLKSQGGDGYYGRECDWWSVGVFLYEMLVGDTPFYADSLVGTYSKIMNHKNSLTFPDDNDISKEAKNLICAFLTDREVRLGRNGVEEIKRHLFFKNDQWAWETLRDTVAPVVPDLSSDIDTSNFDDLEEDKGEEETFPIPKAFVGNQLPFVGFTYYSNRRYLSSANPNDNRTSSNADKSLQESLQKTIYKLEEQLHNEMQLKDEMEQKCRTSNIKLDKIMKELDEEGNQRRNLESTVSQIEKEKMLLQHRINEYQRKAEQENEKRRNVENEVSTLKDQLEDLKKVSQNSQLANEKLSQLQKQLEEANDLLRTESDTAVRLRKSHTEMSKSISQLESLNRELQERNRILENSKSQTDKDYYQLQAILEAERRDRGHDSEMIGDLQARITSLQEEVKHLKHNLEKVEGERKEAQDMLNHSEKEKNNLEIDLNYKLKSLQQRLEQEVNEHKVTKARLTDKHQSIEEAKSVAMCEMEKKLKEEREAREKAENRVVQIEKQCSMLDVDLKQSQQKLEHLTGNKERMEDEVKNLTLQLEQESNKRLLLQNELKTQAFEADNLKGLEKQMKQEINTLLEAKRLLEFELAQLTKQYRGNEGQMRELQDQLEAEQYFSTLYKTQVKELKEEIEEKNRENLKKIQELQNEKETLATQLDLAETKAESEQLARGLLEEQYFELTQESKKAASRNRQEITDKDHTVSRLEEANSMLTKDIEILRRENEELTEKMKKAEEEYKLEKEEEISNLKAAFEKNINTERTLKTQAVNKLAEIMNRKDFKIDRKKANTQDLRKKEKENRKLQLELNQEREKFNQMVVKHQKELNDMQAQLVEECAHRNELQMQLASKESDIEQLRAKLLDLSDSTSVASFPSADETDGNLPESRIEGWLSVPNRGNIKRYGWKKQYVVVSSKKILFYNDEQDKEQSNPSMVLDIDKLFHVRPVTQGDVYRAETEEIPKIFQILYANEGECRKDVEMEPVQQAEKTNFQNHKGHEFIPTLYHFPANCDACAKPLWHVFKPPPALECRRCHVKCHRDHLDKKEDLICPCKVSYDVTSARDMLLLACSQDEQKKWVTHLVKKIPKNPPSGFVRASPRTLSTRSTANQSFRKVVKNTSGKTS
Data set [8] is described as follows: Oral bioavailability in Sprague-Dawley rat at 1.1 mg/kg. In kind it is ADME, organism-based. As to conditions: in vivo.
Data set [9] deals with Ribosomal protein S6 kinase alpha-1 (Homo sapiens, UniProt Q15418). Kind of data set: Inhibition of RSK1.
Sequence of Ribosomal protein S6 kinase alpha-1 (Q15418 whole entry): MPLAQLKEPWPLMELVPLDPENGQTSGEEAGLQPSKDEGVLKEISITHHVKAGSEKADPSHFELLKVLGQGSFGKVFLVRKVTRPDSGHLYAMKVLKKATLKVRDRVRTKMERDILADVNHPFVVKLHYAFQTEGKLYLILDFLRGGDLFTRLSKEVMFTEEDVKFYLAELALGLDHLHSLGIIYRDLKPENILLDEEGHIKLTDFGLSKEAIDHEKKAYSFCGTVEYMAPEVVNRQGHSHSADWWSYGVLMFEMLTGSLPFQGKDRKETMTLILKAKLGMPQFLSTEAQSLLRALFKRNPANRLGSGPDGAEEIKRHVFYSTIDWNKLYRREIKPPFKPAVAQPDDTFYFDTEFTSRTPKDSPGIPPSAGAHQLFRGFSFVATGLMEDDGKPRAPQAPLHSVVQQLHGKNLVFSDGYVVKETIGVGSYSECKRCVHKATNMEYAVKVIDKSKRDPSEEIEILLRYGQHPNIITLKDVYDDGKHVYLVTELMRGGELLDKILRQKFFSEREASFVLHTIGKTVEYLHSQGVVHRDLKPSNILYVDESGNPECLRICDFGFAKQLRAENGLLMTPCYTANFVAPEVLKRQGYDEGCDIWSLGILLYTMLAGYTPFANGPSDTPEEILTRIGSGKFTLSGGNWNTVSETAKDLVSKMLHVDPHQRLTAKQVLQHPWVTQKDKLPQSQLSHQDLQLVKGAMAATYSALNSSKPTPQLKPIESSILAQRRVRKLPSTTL
Data set [10] in a line: Volume of distribution at steady state in Sprague-Dawley rat at 1.3 mg/kg, iv. The arrangement: dose 1.3 mg/kg, route intravenous. As to conditions: in vivo, read-out: Vdss. It counts as ADME, organism-based.
The nature of data set [11]: Clearance in Sprague-Dawley rat at 1.3 mg/kg, iv. In kind it is ADME, organism-based. The arrangement: dose 1.3 mg/kg, route intravenous. Particulars: in vivo.
Data set [12] is described as follows: Half life in Sprague-Dawley rat at 1.3 mg/kg, iv. The arrangement: dose 1.3 mg/kg, route intravenous. Particulars: in vivo. It counts as ADME, organism-based.
Data set [13] is described as follows: Half life in Sprague-Dawley rat at 1.2 mg/kg, iv. In kind it is ADME, organism-based. The arrangement: dose 1.2 mg/kg, route intravenous. Particulars: in vivo.
Data set [14] in a line: Clearance in Sprague-Dawley rat at 1.2 mg/kg, iv. It counts as ADME, organism-based. The arrangement: dose 1.2 mg/kg, route intravenous. As to conditions: in vivo.
Data set [15] in a line: Oral bioavailability in Sprague-Dawley rat at 1.2 mg/kg. It counts as ADME, organism-based. Particulars: in vivo.
Data set [16] is described as follows: Volume of distribution at steady state in Sprague-Dawley rat at 1.2 mg/kg, iv. Set-up: dose 1.2 mg/kg, route intravenous. As to conditions: in vivo, read-out: Vdss. In kind it is ADME, organism-based.
The target in the next data set is Cytochrome P450 3A4 (Homo sapiens, UniProt P08684). As to the kind of experiment: Inhibition of CYP3A4. It counts as ADME.
Sequence of Cytochrome P450 3A4 (P08684 whole entry): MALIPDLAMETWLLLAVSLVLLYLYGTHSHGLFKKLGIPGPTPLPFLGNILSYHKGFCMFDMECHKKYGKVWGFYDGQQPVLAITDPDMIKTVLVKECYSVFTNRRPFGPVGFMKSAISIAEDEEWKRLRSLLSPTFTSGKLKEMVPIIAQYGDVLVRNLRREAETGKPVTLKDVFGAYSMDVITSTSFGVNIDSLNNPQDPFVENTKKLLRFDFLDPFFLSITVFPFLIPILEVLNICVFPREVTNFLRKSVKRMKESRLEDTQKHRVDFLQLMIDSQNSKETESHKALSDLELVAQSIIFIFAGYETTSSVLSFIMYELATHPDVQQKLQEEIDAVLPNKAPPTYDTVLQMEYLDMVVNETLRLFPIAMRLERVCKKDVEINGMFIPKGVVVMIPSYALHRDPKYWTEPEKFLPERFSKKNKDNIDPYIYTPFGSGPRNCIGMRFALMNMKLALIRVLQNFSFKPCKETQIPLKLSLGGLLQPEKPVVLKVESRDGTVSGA
Data set [17] in a line: Clearance in Sprague-Dawley rat at 1.8 mg/kg, iv. In kind it is ADME, organism-based. Set-up: dose 1.8 mg/kg, route intravenous. Particulars: in vivo.
Data set [18] can be described thus: Half life in Sprague-Dawley rat at 1.8 mg/kg, iv. It counts as ADME, organism-based. The arrangement: dose 1.8 mg/kg, route intravenous. As to conditions: in vivo.
Data set [19] is described as follows: Oral bioavailability in Sprague-Dawley rat at 1.8 mg/kg. It counts as ADME, organism-based. As to conditions: in vivo.
Data set [20] is described as follows: Volume of distribution at steady state in Sprague-Dawley rat at 1.8 mg/kg, iv. It counts as ADME, organism-based. Set-up: dose 1.8 mg/kg, route intravenous. As to conditions: in vivo, read-out: Vdss.
Data set [21] can be described thus: as §1. In kind it is ADME, organism-based. Set-up: dose 1.1 mg/kg, route intravenous. Particulars: Sprague-Dawley, in vivo, read-out: Vdss.
Data set [22] in a line: as §2. It counts as ADME, organism-based. Set-up: dose 1.1 mg/kg, route intravenous. As to conditions: Sprague-Dawley, in vivo.
Data set [23] can be described thus: Clearance in Sprague-Dawley rat at 1.1 mg/kg, iv. In kind it is ADME, organism-based. Set-up: dose 1.1 mg/kg, route intravenous. As to conditions: in vivo.

Broadly, the pIC50 is the negative decadic logarithm of the IC50, by convention in mol/L. A word on the Vdss: it is a proportionality between amount in the body and measured concentration, not a real space. Usually half-life stands for the time needed for the level to fall by half in the phase considered. Usually bioavailability stands for the share of a dose that reaches the circulation, judged against a reference dose that is usually intravenous. `CC1=C(C(=O)Nc2cc3cn[nH]c3cc2F)C(c2ccc(Cl)cc2F)N=C(c2ccnc(Cl)c2)N1` (configuration not stated) registered an Activity with Rattus norvegicus [1] of 25 mmHg. Besides, the pIC50 is 6.59 in the data set with Aorta; 6.00 in data set [2]; 5.60 against Cytochrome P450 2C9; 5.28 against Cytochrome P450 2D6; 8.22 in data set [7]; 6.40 in data set [9]. Besides, the Vdss with Rattus norvegicus [3] turned out to be 2 L/kg. The compound further showed a half-life in [4] of 132 min. Also, the bioavailability in data set [5] was determined as 19%; in [8], 49%. The same compound gave a t1/2 with Rattus norvegicus [6] of 105 min.

For `COc1ccc(C2=NC(C)C(C(=O)Nc3ccc4[nH]ncc4c3)=C(C)N2)cc1` (configuration not stated), the pIC50 in data set [7] is 6.06.

Usually clearance stands for the rate of elimination divided by the concentration. Regarding `CC1=C(C(=O)Nc2ccc3[nH]ncc3c2)C(c2ccc(F)cc2)NC(=O)N1` (configuration not stated) [GSK-180736A], the Vd in data set [10] stood at 2.2 L/kg. In addition, in data set [11], the clearance came to 49 mL/min/kg. This compound showed a pIC50 in the data set on Aorta of 6.12. In data set [12], the half-life is 42 min.

In the case of `CC1=C(C(=O)Nc2ccc3[nH]ncc3c2)C(c2ccc(F)cc2)N=C(c2ccc(C)c(F)c2)N1` (configuration not stated), the negative-log IC50 (pIC50) in [7] is 6.98.

Take `CC1=C(C(=O)Nc2ccc3[nH]ncc3c2)C(c2ccc(F)cc2)N=C(c2cnccn2)N1` (configuration not stated): in data set [7], the pIC50 is 6.98.

As for `CC1=C(C(=O)Nc2ccc3[nH]ncc3c2)C(c2ccc(F)cc2)N=C(c2ccc(C(F)(F)F)nc2)N1` (configuration not stated) [GSK-317354A], in data set [7], the negative-log IC50 (pIC50) was 7.12.

`COc1ccc(C2=NC(c3ccc(F)cc3)C(C(=O)Nc3ccc4[nH]ncc4c3)=C(C)N2)cc1` (configuration not stated) returned a half-life in data set [13] of 169 min. The compound further gave a clearance in [14] of 55 mL/min/kg. The pIC50 in [7] was 7.34. The compound further had a bioavailability in data set [15] of 35%. For the same compound, in data set [16], the Vd is 5.1 L/kg.

With `COc1ccc(C2=NC(c3ccc(Cl)cc3F)C(C(=O)Nc3ccc4[nH]ncc4c3)=C(C)N2)cn1` (configuration not stated), the results for the pIC50 (against Cytochrome P450 3A4; against Cytochrome P450 2D6; in data set [7]) were 5.60, 5.92 and 8.52, respectively. The bioavailability in [8] came out at 27%.

On to `CC1=C(C(=O)Nc2ccc3[nH]ncc3c2)C(c2ccc(F)cc2)N=C(c2ccncc2)N1` (configuration not stated), for which the pIC50 in data set [7] was 8.10. The bioavailability in data set [15] is 0%.

For the compound `CC1=C(C(=O)Nc2ccc3[nH]ncc3c2)C(c2ccc(F)cc2)N=C(c2ccccn2)N1` (configuration not stated), the pIC50 in data set [7] was 6.74.

In the case of `CCOc1cc(C2=NC(c3ccc(Cl)cc3F)C(C(=O)Nc3cc4cn[nH]c4cc3F)=C(C)N2)ccn1` (configuration not stated), in data set [7], the pIC50 is 7.96.

Consider `CC1=C(C(=O)Nc2ccc3[nH]ncc3c2)C(c2ccc(F)cc2)N=C(c2cccc(C)c2)N1` (configuration not stated), for which the pIC50 in data set [7] is 6.89.

On to `CC1=C(C(=O)Nc2cc3cn[nH]c3cc2F)C(c2ccc(Cl)cc2F)N=C(c2ccnc(C)c2)N1` (configuration not stated), for which, in [7], the negative-log IC50 (pIC50) was 8.00.

On to `COc1ccc(C2=NC(c3ccc(C(F)(F)F)cc3F)C(C(=O)Nc3ccc4[nH]ncc4c3)=C(C)N2)cc1` (configuration not stated), for which the pIC50 in data set [7] is 7.59.

Regarding `CC1=C(C(=O)Nc2ccc3[nH]ncc3c2)C(c2ccc(F)cc2)N=C(c2cccc(C(F)(F)F)c2)N1` (configuration not stated), in [7], the pIC50 is 6.54.

Take `CC1=C(C(=O)Nc2ccc3[nH]ncc3c2)C(c2ccc(F)cc2)N=C(c2ccccc2)N1` (configuration not stated): the pIC50 was 6.46 against Cytochrome P450 3A4; 5.89 in the data set on Aorta; 5.35 in data set [2]; 6.19 at Cytochrome P450 2C9; 7.05 on Cytochrome P450 2D6; 6.98 in [7]. This compound also showed a pIC50 in data set [9] of 5.28. Further, in data set [17], the clearance was determined as 15 mL/min/kg. In [18], this compound had a half-life of 60 min. This compound also came in with a bioavailability in data set [19] of 16%. Besides, in data set [20], the Vd stood at 0.8 L/kg.

Turning to `CC1=C(C(=O)Nc2ccc3[nH]ncc3c2)C(c2ccc(F)cc2)N=C(c2ccc(C)cc2)N1` (configuration not stated), the pIC50 in data set [7] was 7.00.

Consider `CC1=C(C(=O)Nc2ccc3[nH]nc(C)c3c2)C(c2ccc(Cl)cc2F)N=C(c2ccnc(Cl)c2)N1` (configuration not stated), for which, in [7], the pIC50 is 7.82.

In the case of `COc1cc(C2=NC(c3ccc(Cl)cc3F)C(C(=O)Nc3ccc4[nH]ncc4c3)=C(C)N2)ccn1` (configuration not stated), the pIC50 was 5.37 against Cytochrome P450 3A4, 5.43 against Cytochrome P450 2D6 and 8.70 in data set [7]. This compound came in with a volume of distribution (Vdss) in the data set with Rattus norvegicus [3] of 2 L/kg. The compound further came in with a t1/2 in the data set on Rattus norvegicus [6] of 34 min. Moreover, the bioavailability in [8] stood at 21%.

On to `CC1=C(C(=O)Nc2ccc3[nH]ncc3c2)C(c2ccc(F)cc2)N=C(c2ccc(Cl)cc2)N1` (configuration not stated), for which, in data set [7], the pIC50 was 6.89.

In the case of `COc1ccc(C2=NC(c3ccc(S(N)(=O)=O)cc3)C(C(=O)Nc3ccc4[nH]ncc4c3)=C(C)N2)cc1` (configuration not stated), in data set [7], the pIC50 is 7.17.

On to `COc1ccc(C2=NC(c3ccc(Cl)cc3F)C(C(=O)Nc3ccc4[nH]ncc4c3)=C(C)N2)cc1` (configuration not stated), for which the pIC50 was 5.57 on Cytochrome P450 3A4; 6.70 in the data set on Aorta; 5.68 in data set [2]; 6.70 on Cytochrome P450 2D6; 8.30 in data set [7]; 6.29 in data set [9]. Further, in data set [21], the Vd is 6.46 L/kg. In data set [22], this compound displayed a half-life of 68 min. This compound registered a bioavailability in [8] of 58%. In addition, the clearance in [23] was determined as 108 mL/min/kg.

Consider `CC1=C(C(=O)Nc2ccc3[nH]ncc3c2)C(c2ccc(Cl)cc2F)N=C(c2ccnc(Cl)c2)N1` (configuration not stated), for which the pIC50 at Cytochrome P450 3A4 was 5.26; against Cytochrome P450 2D6 it was 5.24; in data set [7] it was 8.40. Besides, in the data set on Rattus norvegicus [3], the distribution volume (Vdss) was found to be 1.6 L/kg. The t1/2 in the data set on Rattus norvegicus [6] came to 62 min. The compound further showed a bioavailability in data set [8] of 7%.

On to `COc1cc(C2=NC(c3ccc(Cl)cc3F)C(C(=O)Nc3cc4cn[nH]c4cc3F)=C(C)N2)ccn1` (configuration not stated), for which the pIC50 was 5.28 against Cytochrome P450 3A4, 5.08 on Cytochrome P450 2C9, 5.68 at Cytochrome P450 2D6 and 8.22 in data set [7]. The same compound gave a Vdss with Rattus norvegicus [3] of 2.5 L/kg. Moreover, the t1/2 in the data set with Rattus norvegicus [6] turned out to be 46 min. In [8], this compound had a bioavailability of 53%.

For `COc1ccc(C2=NC(c3ccc(S(C)(=O)=O)cc3)C(C(=O)Nc3ccc4[nH]ncc4c3)=C(C)N2)cc1` (configuration not stated), the negative logarithm of the IC50 (pIC50) in [7] was 6.82.
